Data published in US20230271969A1, “NITROGEN-CONTAINING FUSED RING DERIVATIVE INHIBITOR, PREPARATION METHOD THEREFOR AND USE THEREOF” (Shanghai Hansoh Biomedical Co., Ltd., priority 2020, published 2023).

What was measured:
NK3 receptors [1] = target: T1, NK3 receptors (Homo sapiens, UniProt P29371); experiment: Calcium ion fluidity (FLIPR) in cells with stable expression of NK3 receptors; assay type: cell-based; details: calcium signal, antagonist mode, read-out: NK3R IC50 (nM) FLIPR
T1 construct: expressed in transfected cells
T1 sequence (P29371 1-465): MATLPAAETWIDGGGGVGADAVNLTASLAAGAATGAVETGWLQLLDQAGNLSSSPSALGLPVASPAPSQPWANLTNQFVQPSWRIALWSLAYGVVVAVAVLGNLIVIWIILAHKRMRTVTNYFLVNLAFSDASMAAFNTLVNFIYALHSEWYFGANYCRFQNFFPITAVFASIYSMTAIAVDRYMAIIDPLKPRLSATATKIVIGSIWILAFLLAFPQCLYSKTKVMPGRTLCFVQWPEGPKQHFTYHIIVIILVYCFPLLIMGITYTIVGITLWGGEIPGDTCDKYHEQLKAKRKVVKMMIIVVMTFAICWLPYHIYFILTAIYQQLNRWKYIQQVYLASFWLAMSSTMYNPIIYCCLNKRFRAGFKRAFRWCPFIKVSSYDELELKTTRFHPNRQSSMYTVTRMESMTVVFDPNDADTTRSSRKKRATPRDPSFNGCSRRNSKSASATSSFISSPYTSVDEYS

[2] = test system: luteinizing hormone (LH) content in plasma; experiment: Luteinizing hormone (LH) content in plasma of bilateral ovariectomy (OVX) rats; assay type: in vivo; details: oral 30 mg/kg, plasma LH 0-8 h
Text: Test Example 5. Effect of the Compounds of the Present Invention on Luteindzing Hormone (LH) Content in Plasma of Bilateral Ovariectomy (OVX) Rats
The objective of this test example was to determine the effect of the compounds on luteinizing hormone (LH) in plasma of bilateral ovarnectomy (OVX) rats.
10-Week-old female bilateral ovariectomy SD rats were purchased from Beijing Vital River Laboratory Animal Technology Co., Ltd. The animals were housed in a SPF grade animal facility with 5 SD rats per cage. The cages, bedding, feed and water were disinfected at high temperatures before use. All animals had free access to food and water.
Drug administration by groups: 10-Week-old female SD rats were subjected to bilateral ovariectomy and used in experiments after 3 weeks. Each SD rat was fasted overnight before the experiment, and then randomly divided into groups (3 rats per group) before the drug administration. Different test compounds were administered orally to each drug administration group at a dose of 30 mg/kg and a volume of 10 mL/kg.
Sample collection: 0.2-0.3 mL of whole blood of the SD rats in each group was collected at 0, 0.5, 1, 2, 4, 8 hours before and after the drug administration, and placed in EDTA-K2 tubes. The tubes were inverted and mixed well, and centrifuged at 4° C. at 5,000 rpm for 5 min. Then the plasma was separated and stored in an ultra-low temperature freezer (−80±10° C.).
Sample detection: All reagents, samples and ELISA plates were equilibrated at room temperature (20-25° C.) for at least 30 min. The sample was thawed, vortexed and centrifuged for use. The standard curve was prepared with Assay buffer C according to the concentration sequence of 10, 5, 2.5, 1.25, 0.625, 0.313 and 0. The sample was diluted by two folds with Sample dilution buffer G and left to stand at room temperature for 10 min. […] The OD values of each well was read at a wavelength of 450 nm with a microplate reader.
The standard curve was plotted by using Graphpad, and the concentration of the sample was calculated. […]

NK3 receptors [3] = target: T1, NK3 receptors; experiment: Antagonism of IP1 in HEK293 cells with stable expression of NK3; assay type: cell-based; details: agonist Senktide 3 nM, read-out: NK3R IC50 (nM) IP1

| SMILES | IC50 (NK3 receptors [1]) | ΣAUC(ΔLH/LH · h, Mean ± SD) [2] | IC50 (NK3 receptors [3]) |
| --- | --- | --- | --- |
| [2H]c1cc(C(=O)N2CCn3c(-c4nc(Cl)ns4)nnc3[C@H]2C)ccc1Cl [Example 73, (R)-(3-(3-Chloro-1,2,4-thiadiazol-5-yl)-8-methyl-5,6-dihydro-[1,2,4]triazolo[4,3-a]pyrazin-7(8H)-yl)(4-chlorophenyl-3-d)methanone] | 267 nM | −2.04 ± 1.36 ΔLH/LH · h |  |
| [2H]c1cc(C(=O)N2CCn3c(-c4nc5cc(F)c(F)cc5s4)nnc3[C@H]2C)ccc1F [Example 62] | 73.6 nM | −1.77 ± 0.42 ΔLH/LH · h | 92.3 nM |
